The subject of data set [1] is pain induced by tooth pulp stimulation. In kind it is in vivo, New Zealand white rabbits.
In another data set the test system is tooth pain. The following applies: background statement, patients; cited from earlier work.
Data set [2] relates to pain induced by tooth pulp stimulation. Also on record: species or system rabbits. The following applies: rabbit, in vivo; read-out: EC50 value and 95% confidence interval for dental local analgesia.
For data set [3], the system named is rabbits. The note with it: rabbit, in vivo.
Data set [4] deals with rabbits. The note with it: rabbit, in vivo. This is another data set of the same source.
The subject of data set [5] is rabbits. The note with it: rabbit, in vivo. This is another data set of the same source.

“And” between values parts separate entries of the source, which are not always exact repeats. Equal values may be shown once. Read-outs that look alike come from different tables or passages of the source.

For the compound `CCN(CC)CC(=O)Nc1c(C)cccc1C` [lidocaine], in data set [1] (rabbit, in vivo), the “Percentage change in pain-inducing threshold voltage” value (“Percentage change” below) is 30 ± 29% and 28 ± 36% and 26 ± 30% and 20 ± 32% and 24 ± 32% and 17 ± 21%; the “effect on the threshold voltage compared to the solvent control, in words” value was “markedly increased the threshold voltage”; the “synergistic activity with TTX, in words” value is “did not show a similar synergistic activity”.
For the compound `CCN(CC)CCOC(=O)c1ccc(N)cc1` [procaine], the “Percentage change” value is −2 ± 20% in data set [1] (2% anesthetic, 20 μL to tooth pulp cavity, 10 min); −2 ± 20% in data set [1] (2% anesthetic, 20 μL to tooth pulp cavity, 20 min); −4 ± 23% in data set [1] (2% anesthetic, 20 μL to tooth pulp cavity, 30 min); −3 ± 22% in data set [1] (2% anesthetic, 20 μL to tooth pulp cavity, 40 min); −2 ± 28% in data set [1] (2% anesthetic, 20 μL to tooth pulp cavity, 50 min); −1 ± 26% in data set [1] (2% anesthetic, 20 μL to tooth pulp cavity, 60 min). For the same compound, the “effect on the threshold voltage compared to the solvent control, in words” value in data set [1] (rabbit, in vivo) is “no clear effect on the threshold voltage”. Besides, in the data set on tooth pain, the “period of partial pain relief as topical anesthetic for tooth pain” value is recorded as “about 1 hour”.
Turning to `CCCCNc1ccc(C(=O)OCCN(C)C)cc1` [tetracaine], the “Percentage change” value in data set [1] (1% tetracaine (equal to 33 mM), 20 μL to tooth pulp cavity, 10 min) amounted to 27 ± 30%; in data set [1] (1% tetracaine (equal to 33 mM), 20 μL to tooth pulp cavity, 20 min), 32 ± 38%; in data set [1] (1% tetracaine (equal to 33 mM), 20 μL to tooth pulp cavity, 30 min), 29 ± 31%; in data set [1] (1% tetracaine (equal to 33 mM), 20 μL to tooth pulp cavity, 40 min), 32 ± 22%; in data set [1] (1% tetracaine (equal to 33 mM), 20 μL to tooth pulp cavity, 50 min), 22 ± 15%; in data set [1] (1% tetracaine (equal to 33 mM), 20 μL to tooth pulp cavity, 60 min) it was 16 ± 18%. The “Percentage change” value in data set [1] (Table 7, 1% tetracaine, 20 μL to tooth pulp cavity, 15 min) amounted to 27 ± 30%; in data set [1] (Table 7, 1% tetracaine, 20 μL to tooth pulp cavity, 45 min), 32 ± 22%. For the same compound, the “effect on the threshold voltage compared to the solvent control, in words” value in data set [1] (rabbit, in vivo) was “markedly increased the threshold voltage”. For the same compound, in the data set on tooth pain, the “period of partial pain relief as topical anesthetic for tooth pain” value was “about 1 hour”.
A word on the EC50: it is the concentration giving half of the maximal effect. Consider `NC1=N[C@H](O)[C@H]2[C@H]3O[C@]4(O)O[C@@H]([C@@H](O)[C@@]2(N1)[C@@H]4O)[C@]3(O)CO` [tetrodotoxin, Tetrodotoxin], for which, in data set [1] (rabbit, in vivo), the “onset of the effect of TTX increasing the threshold voltage” value came to 5 min and the “time at which peak of effect on threshold voltage was reached” value stood at 1 h. Moreover, in data set [2], the EC50 came to 1.04 ± 0.03 mM. The “rabbits manifesting increased excretion in the respiratory tract” value in the data set with rabbits [3] is 4 out of 10. Moreover, in the data set with rabbits [4], the “RR (respiratory rate)” value was 99 ± 11 and 102 ± 2 and 102 ± 6 and 91 ± 10 and 94 ± 12 and 99 ± 5; the “effect on ECG, in words” value was “did not suggest any significant effect”; the “effect on heart rate or respiratory rate, in words” value was “did not significantly modify the heart rate or respiratory rate”. Also, in the data set with rabbits [5], the ALP is 69 ± 17 U/L and 71 ± 23 U/L; the ALT was 67 ± 43 U/L and 53 ± 19 U/L; the BUN is 8.4 ± 0.9 mmol/L and 8.5 ± 1.7 mmol/L; the CO2 in serum was 26.4 ± 1.2 mmol/L and 30.0 ± 2.5 mmol/L. In the data set with rabbits [5], the “Ca^2+ in serum” value was 3.26 ± 0.18 mmol/L and 3.34 ± 0.12 mmol/L; the Cre was 109 ± 12 µmol/L and 99 ± 6 µmol/L; the GTP is 5.2 ± 1.3 U/L and 5.7 ± 2.1 U/L; the HCT was 38.5 ± 3.4% and 33.6 ± 1.9%. Besides, in the data set with rabbits [5], the HGB was 12.4 ± 1.0 g/dL and 11.3 ± 0.6 g/dL; the IP was 1.66 ± 0.23 mmol/L and 1.46 ± 0.40 mmol/L; the “K^+ in serum” value is 3.8 ± 0.3 mmol/L and 3.8 ± 0.1 mmol/L; the LAP was 109 ± 11 µmol/L and 108 ± 10 µmol/L. Further, in the data set on rabbits [5], the MCH is 22.2 ± 1.4 pg and 22.5 ± 1.1 pg; the MCHC is 32.4 ± 1.3 g/dL and 33.6 ± 0.6 g/dL; the MCV was 68.5 ± 2.8 fL and 66.9 ± 2.1 fL; the “Na^+ in serum” value is 141.1 ± 1.1 mmol/L and 141.7 ± 1.8 mmol/L. In the data set with rabbits [5], the PLT is 141 ± 120 ×10^3/μl and 159 ± 37 ×10^3/μl; the TBA is 13.5 ± 12.0 U/L and 14.5 ± 9.2 U/L; the TP is 60 ± 6 g/L and 57 ± 6 g/L; the WBC is 4.2 ± 1.2 ×10^3/μl and 6.6 ± 2.4 ×10^3/μl. In the data set with rabbits [5], the “effect on the blood cellular or biochemical parameters, in words” value is “did not have any significant effect”.
